According to US9539237B2, “Compositions and methods for drug-sensitization or inhibition of a cancer cell” (The Texas A&M University System, priority 2012, dated 2017):

Assays:
[1] = system: CHOP-resistant G3 NHL cells; assay: Cell growth assay (resazurin fluorescence) on G3 cells; type: cell-based, human; conditions: for Magnitude of potentiation in combination with doxorubicin: G3; for Fold increase in potency over DOX alone: lymphoma cell line G3
Protocol: Compositions were tested on CHOP-resistant G3 NHL cells that had been cultivated in RPMI medium for five days. Prior to assay, the cells were counted by haemocytometer and cell concentration standardized to 625,000 cells/ml. Test drugs were solubilized in 100% DMSO and then diluted to final assay concentration with 0.1M phosphate buffered saline (PBS) and a final DMSO concentration of 0.5%. […] The metabolic dye rezasurin was added to the wells of the assay plate at a final concentration of 20 μg/ml and the plates were incubated for an additional 24 hours. The plates were then read in a BMG Polarstar plate reader at wavelength (573-605) and the data plotted as OD versus increasing dilutions (i.e., decreasing total amounts) of rifabutin derivative concentration.
(§1) In these experiments, the following cell lines were used: CHOP-resistant NHL cell line G3, CHOP-sensitive NHL cell line CRL2631, the multi-drug resistant sarcoma cell line MES-SA-Dx5; multi-drug-resistant breast cancer cell line MDA-MB-231, multi-drug resistant ovarian carcinoma cell line SK-OV3, multi-drug resistant ovarian cancer cell line NCI/ADR-RES, drug-sensitive ovarian cancer cell line OVCAR-5, and multi-drug resistant ovarian cancer cell line OVCAR-3. […]

[2] = system: multi-drug resistant ovarian carcinoma cell line SK-OV3; assay: Cell growth assay on SK-OV3 cells; type: cell-based, human
Excerpt: as §1

[3] = system: multi-drug resistant ovarian cancer cell line OVCAR-3; assay: Cell growth assay on OVCAR-3 cells; type: cell-based
Excerpt: (§2) In these experiments, the following cell lines were used: CHOP-resistant NHL cell line G3, CHOP-sensitive NHL cell line CRL2631, the multi-drug resistant sarcoma cell line MES-SA-Dx5; multi-drug-resistant breast cancer cell line MDA-MB-231, multi-drug resistant ovarian carcinoma cell line SK-OV3, multi-drug resistant ovarian cancer cell line NCI/ADR-RES, drug-sensitive ovarian cancer cell line OVCAR-5, and multi-drug resistant ovarian cancer cell line OVCAR-3.
(§3) Additional cell lines used include: ovarian cancer OVCAR-8. T lymphoblastoid leukemia MOLT-4, dexamethasone-resistant multiple myeloma MM.1R, myeloid leukemia cells HL-60, osteosarcoma cells U-2 OS, and myeloma RPMI 8226.

[4] = system: multi-drug-resistant breast cancer cell line MDA-MB-231; assay: Cell growth assay on MDA-MB-231 cells; type: cell-based
Excerpt: as §2, §3

[5] = system: multi-drug resistant sarcoma cell line MES-SA-Dx5; assay: Cell growth assay on MES-SA-Dx5 cells; type: cell-based
Excerpt: as §2, §3

[6] = system: G3 CHOP-resistant NHL cells; assay: G3 tumor efficacy studies in SCID mice; type: in vivo; conditions: fourth study
Protocol: In a first efficacy study, 6-8 week old female SCID mice (7 mice per treatment arm) were injected subcutaneously on both flanks with 1×10^7 G3 CHOP-resistant NHL cells. Once palpable tumors (about […] size) appeared, therapies (CHOP or CHOP+rifabutin) were started. CHOP was administered at the maximum tolerated dose (cyclophosphamide, 40 mg/kg i.v.; doxorubicin, 3.3 mg/kg i.v.; vincristine, 0.5 mg/kg i.v.; and prednisone, 0.2 mg/kg orally daily for 5 d) weekly for 3 weeks. Rifabutin in an amount of 100 mg/kg was administered on the day of each CHOP treatment and 24-hours later by gavage. Mouse body weight and tumor size were monitored every two days and tumor size measured by caliper. The tumor volume formula (L*W*W)/2 was used to calculate tumor mass.
A second efficacy study was conducted where mice were treated before the appearance of palpable tumors. In that experiment, one week after transplantation of CHOP-resistant G3 cells, one group (7 mice) was treated with CHOP-only and a second group (8 mice) was treated with CHOP+rifabutin.
A third study was conducted in which mice injected with CHOP-resistant G3 cells received reduced dosages of CHOP in combination with 33 mg/kg rifabutin. CHOP+rifabutin was administered weekly beginning one week post-inoculation. Control mice were given no CHOP or rifabutin.
SCID mice were injected with CHOP-resistant G3 cells in the same manner as the first efficacy study above. Treatments began 2 weeks post-inoculation and were administered twice weekly.

[7] = system: multi-drug resistant ovarian cancer cell line NCI/ADR-RES; assay: Cell growth assay on NCI/ADR-RES cells; type: cell-based
Excerpt: as §2, §3

total intracellular ROS = assay: Intracellular ROS by CellROX staining and flow cytometry; type: cell-based
Excerpt: Cells were then stained with the fluorescent ROS indicator, CellROX, and subjected to flow cytometry to quantitate total intracellular ROS.
The electron transport chain (ETC) is known to be a primary generator of ROS in the cell. Most of the ROS is generated by Complexes I and III of the ETC. Inhibition of Complex I results in electrons piling up and leaking to react with oxygen to produce ROS.
MDR/P-gp activity is closely associated with calcium status in the cell, so calcium modulators were tested for effects on ROS. […] Relatively Dox-sensitive lymphoma (CRL2631, 10S, WSU) and ovarian carcinoma (OVCAR8) and more Dox-resistant lymphoma (G3R, 10R, WSUR) and ovarian carcinoma (ADR) were treated with 10 uM […] for 2 hrs. […] Cells were co-stained with the cell-permeable red fluorescent ROS indicator, CellROX, and cell-permeable green fluorescent calcium indicator. Fluo-4AM, and then subjected to flow cytometry to quantitate changes in ROS and calcium levels.
All samples were analyzed at the same time in flow cytometry.

[8] = Dox-resistant G3 lymphoma cells, FIG. 40

Compound	Magnitude of potentiation in combination with doxorubicin [1]	Magnitude of potentiation in combination with doxorubicin [2]	Fold increase in potency over DOX alone [1] [fold]	Magnitude of potentiation in combination with doxorubicin [3]	also measured
4-deoxy-3,4[2-spiro-[1-(isobutylaminocarbonyl)-piperidin-4-yl]]-(1H)-imidazo-(2,5-dihydro)rifamycin S [RTI-102]	++ (++ potentiation between 2.1 to 5 fold increase)	+++ (+++ potentiation greater than 5 fold increase)			
4-deoxy-3,4[2-spiro-[1-(n-propyloxycarbonyl)-piperidin-4-yl]]-(1H)-imidazo-(2,5-dihydro)rifamycin S [RTI-78]			29.5		
11-deoxy-11-amino-4-deoxy-3,4[2-spiro-[1-(isobutylaminocarbonyl)-piperidin-4-yl]]-(1H)-imidazo-(2,5-dihydro)rifamycin S [RTI-183]			0.5	+ (+ potentiation between 1.2 to 2.0 fold increase)	
11-deoxy-11-imino-4-deoxy-3,4[2-spiro-[1-(2-methoxyethyl)-piperidin-4-yl]]-(1H)-imidazo-(2,5-dihydro)rifamycin S [RTI-51]		+ (+ potentiation between 1.2 to 2.0 fold increase)	0.7	+ (+ potentiation between 1.2 to 2.0 fold increase)	
11-deoxy-11-imino-4-deoxy-3,4[2-spiro-[1-(2-morpholinoethyl)-piperidin-4-yl]]-(1H)-imidazo-(2,5-dihydro)rifamycin S [RTI-53]		+ (+ potentiation between 1.2 to 2.0 fold increase)	0.2	+ (+ potentiation between 1.2 to 2.0 fold increase)	
11-deoxy-11-imino-4-deoxy-3,4[2-spiro-[1-(isobutylaminocarbonyl)-piperidin-4-yl]]-(1H)-imidazo-(2,5-dihydro)rifamycin S [RTI-182]	+ (+ potentiation between 1.2 to 2.0 fold increase)	++ (++ potentiation between 2.1 to 5 fold increase)	2.0	+ (+ potentiation between 1.2 to 2.0 fold increase)	Magnitude of potentiation in combination with doxorubicin [4]: ++ (++ potentiation between 2.1 to 5 fold increase)
11-deoxy-11-imino-4-deoxy-3,4[2-spiro-[1-(isobutyloxycarbonyl)-piperidin-4-yl]]-(1H)-imidazo-(2,5-dihydro)rifamycin S [RTI-81]	+++ (+++ potentiation greater than 5 fold increase)	+++ (+++ potentiation greater than 5 fold increase)			Magnitude of potentiation in combination with doxorubicin [5]: ++ (++ potentiation between 2.1 to 5 fold increase); Longer life than doxorubicin only ([6]; DOX 3.3 mg/kg iv + RTI-81 10 mg/kg by gavage twice weekly): 27%; Mean lifespan ([6]; doxorubicin+RTI-81 group): 42.6; Median lifespan ([6]; doxorubicin+RTI-81 group): 42; Magnitude of potentiation in combination with doxorubicin [7]: + (+ potentiation between 1.2 to 2.0 fold increase)
O=c1[nH]c2ccccc2n1C1CCN(Cc2ccc(-c3nc4cc5[nH]cnc5cc4nc3-c3ccccc3)cc2)CC1 [Akt Inhibitor VIII, reference compound]					Reversal of CHOP resistance ([1]; G3 cells, FIG. 30B): dose-dependent reversal of CHOP resistance
CC(=O)OCOC(=O)CN(CC(=O)OCOC(C)=O)c1ccccc1OCCOc1ccccc1N(CC(=O)OCOC(C)=O)CC(=O)OCOC(C)=O [BAPTA-AM]					Induction of ROS (total intracellular ROS; [8]): induced ROS
CCNC(=O)N1CCC2(CC1)N=c1c3c(O)c4c(O)c(C)c5c(c4c1=N2)C(=N)[C@@](C)(O/C=C/[C@H](OC)[C@@H](C)[C@@H](OC(C)=O)[C@H](C)[C@H](O)[C@H](C)[C@@H](O)[C@@H](C)/C=C/C=C(/C)C(=O)N3)O5 [RTI-82, 11-deoxy-11-imino-4-deoxy-3,4[2-spiro-[1-(ethylaminocarbonyl)-piperidin-4-yl]]-(1H)-imidazo-(2,5-dihydro)rifamycin S]			0.7		Magnitude of potentiation in combination with doxorubicin [4]: +++ (+++ potentiation greater than 5 fold increase)
CO[C@H]1/C=C/O[C@@]2(C)Oc3c(C)c(O)c4c(O)c(c5c(c4c3C2O)=NC2(CCN(CC(C)C)CC2)N=5)NC(=O)/C(C)=C\C=C\[C@H](C)[C@H](O)[C@@H](C)[C@@H](O)[C@@H](C)[C@H](OC(C)=O)[C@@H]1C (stereo partly drawn) [RTI-174, 11-deoxy-11-hydroxy-4-deoxy-3,4[2-spiro-[1-(2-methylpropyl)-piperidin-4-yl]]-(1H)-imidazo-(2,5-dihydro)rifamycin S]	++ (++ potentiation between 2.1 to 5 fold increase)	+ (+ potentiation between 1.2 to 2.0 fold increase)		+ (+ potentiation between 1.2 to 2.0 fold increase)	Magnitude of potentiation in combination with doxorubicin [7]: + (+ potentiation between 1.2 to 2.0 fold increase)
COC1C=COC2(C)Oc3c(C)c(O)c4c(c3C2N)C2=NC3(CCN(CC(C)C)CC3)NC2=C(NC(=O)C(C)=CC=CC(C)C(O)C(C)C(O)C(C)C(OC(C)=O)C1C)C4=O (stereo not drawn) [RTI-181, 11-deoxy-11-amino-4-deoxy-3,4[2-spiro-[1-(2-methylpropyl)-piperidin-4-yl]]-(1H)-imidazo-(2,5-dihydro)rifamycin S]	+++ (+++ potentiation greater than 5 fold increase)	+++ (+++ potentiation greater than 5 fold increase)	5.5	+ (+ potentiation between 1.2 to 2.0 fold increase)	
C=C(C)[C@H]1Cc2c(ccc3c2O[C@@H]2COc4cc(OC)c(OC)cc4[C@@H]2C3=O)O1 [Rotenone]					Induction of ROS (total intracellular ROS; [8]): induced ROS
COC(=O)[C@H]1[C@H]2C[C@@H]3c4[nH]c5cc(OC)ccc5c4CCN3C[C@H]2C[C@@H](OC(=O)c2cc(OC)c(OC)c(OC)c2)[C@@H]1OC [reserpine]					Induction of ROS relative to control drugs (total intracellular ROS; ADR and OVCAR8 cells, FIG. 41A): induced ROS; Induction of ROS (total intracellular ROS; OVCAR8, ADR-RES and G3 cells, 2 hrs, 10 uM, FIG. 38): induced ROS
antimycin A					Induction of ROS (total intracellular ROS; [8]): not
